For test [1], the system named is MM.1S and RPMI cells. Briefly: Synergy with Velcade/Bortezomib in myeloma cell lines. It is filed as cell-based.
Test [2] has as its target T1, HDAC6 (Homo sapiens, UniProt Q9UBN7).
T1 sequence (Q9UBN7 1-1215): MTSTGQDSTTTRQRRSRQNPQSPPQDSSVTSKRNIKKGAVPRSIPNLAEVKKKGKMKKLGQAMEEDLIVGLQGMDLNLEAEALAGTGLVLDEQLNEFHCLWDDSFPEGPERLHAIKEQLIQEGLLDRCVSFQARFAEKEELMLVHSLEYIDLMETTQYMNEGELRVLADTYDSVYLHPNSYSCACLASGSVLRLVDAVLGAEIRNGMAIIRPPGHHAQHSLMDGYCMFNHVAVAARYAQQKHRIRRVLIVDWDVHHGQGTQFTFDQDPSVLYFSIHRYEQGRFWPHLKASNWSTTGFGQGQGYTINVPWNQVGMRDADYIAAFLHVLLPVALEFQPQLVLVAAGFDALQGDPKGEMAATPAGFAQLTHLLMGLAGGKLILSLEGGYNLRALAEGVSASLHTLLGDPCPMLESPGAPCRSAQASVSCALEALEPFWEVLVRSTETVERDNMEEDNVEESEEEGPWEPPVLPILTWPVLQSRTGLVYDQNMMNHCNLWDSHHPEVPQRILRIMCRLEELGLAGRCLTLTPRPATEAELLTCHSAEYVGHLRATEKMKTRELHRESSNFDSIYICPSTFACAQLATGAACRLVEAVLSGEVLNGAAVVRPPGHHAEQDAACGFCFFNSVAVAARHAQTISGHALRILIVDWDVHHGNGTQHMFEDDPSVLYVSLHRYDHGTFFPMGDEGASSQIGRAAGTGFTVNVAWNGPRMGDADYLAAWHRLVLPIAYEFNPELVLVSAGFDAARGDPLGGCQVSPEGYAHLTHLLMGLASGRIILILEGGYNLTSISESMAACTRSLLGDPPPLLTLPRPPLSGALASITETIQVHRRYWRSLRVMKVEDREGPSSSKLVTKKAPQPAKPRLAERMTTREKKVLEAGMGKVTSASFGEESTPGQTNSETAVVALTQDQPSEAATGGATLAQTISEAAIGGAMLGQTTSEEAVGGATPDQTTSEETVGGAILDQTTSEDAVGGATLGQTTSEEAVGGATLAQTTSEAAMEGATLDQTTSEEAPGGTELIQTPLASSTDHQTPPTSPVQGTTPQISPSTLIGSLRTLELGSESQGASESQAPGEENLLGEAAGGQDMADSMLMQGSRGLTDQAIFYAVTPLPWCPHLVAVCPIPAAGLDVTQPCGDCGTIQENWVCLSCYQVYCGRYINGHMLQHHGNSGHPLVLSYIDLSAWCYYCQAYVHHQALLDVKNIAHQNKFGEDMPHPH
Description: Western blotting with anti-acetylated lysine / HDAC6 Abs. The class given is cell-based. Set-up: MM.1S, U266, INA-6, RPMI8226, and RPMI-LR5 MM cell lines constitutively express HDAC6; endogenous in cells; host or cells: MM.1S, RPMI8226 and other MM cell lines; MM patient BMPCs/PBMCs. The method, then: MM cells were cultured with Velcade and/or Tubacin; harvested; washed; and lysed using lysis buffer: 50 mM Tris-HCl (pH 7.4), 150 mM NaCl, 1% NP-40, 5 mM EDTA, 5 mM NaF, 2 mM Na3VO4, 1 mM PMSF, 5 μg/ml leupeptine, and 5 μg/ml aprotinin. Cell lysates were subjected to SDS-PAGE, transferred to PVDF membrane (Bio-Rad Laboratories, Hercules, Calif.), and immunoblotted with Abs against specific proteins.
Cells cultured with tubacin and/or bortezomib were harvested; washed, and lysed using lysis buffer: 50 mM Tris-HCl (pH 7.4), 150 mM NaCl, 1% NP-40, 5 mM EDTA, 5 mM NaF, 1 mM Na3VO4, 1 mM PMSF, 5 μg/ml leupeptine, and 5 μg/ml aprotinin. Whole cell lysates were subjected to SDS-PAGE, transferred to nitrocellulose membrane (Bio-Rad Laboratories, Hercules, Calif.), and immunoblotted with specific Abs (31). Western blotting was done using anti-HDAC6, acetylated lysine, acetylated histone H3, acetylated histone H4, ubiquitin (Ub), phospho-SAPK (JNK), caspase-8 caspase-9, caspase-3, and PARP Abs (Cell Signaling, Beverly, Mass.); with anti-α-tubulin Ab (Santa Cruz Biotechnology, Santa Cruz, Calif.); as well as with anti-dynein Ab (Sigma, Saint Louis, Mo.). For immunoprecipitation, whole cell lysates were incubated with anti-Ub or dynein Abs overnight at 4° C., and then incubated with protein A/G PLUS-Agarose (Santa Cruz Biotechnology) for 2 h at 4° C., as in our prior study (31). Immunoprecipitates were then subjected to Western blotting for detection of HDAC6 and dynein.
Background: A western blot detects proteins with antibodies after separation by electrophoresis.

Entries after “also recorded” stand apart in the source; their conditions may differ.

In the case of `O=C(CCCCCCC(=O)Nc1ccc([C@H]2O[C@@H](CSc3nc(-c4ccccc4)c(-c4ccccc4)o3)C[C@@H](c3ccc(CO)cc3)O2)cc1)NO` [tubacin], in test [1] (MM.1S and RPMI cells), the “synergy with Velcade” value was “synergy”. Also, the “toxicity and synergy with Bortezomib” value was “toxicity and synergy” in test [1] (MM.1S cells); “toxicity and synergy” in test [1] (RPMI-8226 cells). Besides, the “acetylation of α-tubulin” value in test [2] (MM cell lines (MM.1S, RPMI8226), tubacin up to 5 μM, 24 h) is on record as “significantly induces aceylation of α-tubulin in a dose-dependent fashion; also recorded: causes tubulin hyperacetylation; also recorded: specifically induces acetylation of t-tubulin in a dose-dependent fashion; also recorded: specifically induces acetylation of α-tubulin”. In test [2] (tubacin 5 μM, 12 h, BMPCs of an MM patient), the “acetylation of tubulin in BMPCs” value is listed as “markedly enhanced”. Moreover, in test [2] (tubacin 5 μM, 12 h, PBMCs of the same MM patient), the “acetylation of tubulin in PBMCs” value is recorded as “but not in PBMCs”. For the same molecule, the “time of peak acetylation of α-tubulin” value in test [2] (tubacin 5 μM, RPMI8226 cells) was found to be 12 h. Also, in test [2] (tubacin treatment (data not shown)), the “expression of HDAC6” value is listed as “not altered”.

The record behind these values is US10172905B1, “Treatment of protein degradation disorders” (President and Fellows of Harvard College, priority 2005, dated 2019).
